Source: paper PMC10799935, “Discovery of a peripheral 5HT2A antagonist as a clinical candidate for metabolic dysfunction-associated steatohepatitis” (Nature Communications, 2024)
Where “and” joins values, the source holds several entries; their conditions need not be identical. Equal entries are not always repeated.

How the values were obtained:
5HT1D = target: T1, 5HT1D (Rattus norvegicus, UniProt P28565); assay: 5HT subtype antagonism assay (Eurofins Cerep): 5HT1D; format: cell-based; details: concentration not given
T1 construct: host or cells: CHO cells
T1 sequence (P28565 whole entry): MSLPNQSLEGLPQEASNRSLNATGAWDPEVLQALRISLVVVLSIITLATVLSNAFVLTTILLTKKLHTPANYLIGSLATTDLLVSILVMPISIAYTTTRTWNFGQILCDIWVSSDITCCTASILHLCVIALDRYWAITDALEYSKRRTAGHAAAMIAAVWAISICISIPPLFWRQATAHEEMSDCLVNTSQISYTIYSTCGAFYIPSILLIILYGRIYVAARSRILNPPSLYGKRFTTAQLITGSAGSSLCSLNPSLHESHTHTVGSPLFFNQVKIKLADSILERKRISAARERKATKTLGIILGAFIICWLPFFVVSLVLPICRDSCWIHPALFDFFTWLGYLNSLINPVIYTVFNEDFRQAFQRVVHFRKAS
Description: The derivatives were evaluated at a concentration of 1 μM for their antagonist activity on the 5HT2A receptor (Tables 1–3)[33],[34]. Human 5HT2A stably transfected HEK293 cells (a type of cell derived from kidney embryos)[20] were seeded in a 96-well plate (Costar; 3603) at a density of 9 × 10^4 in 100 μL of minimum essential medium (Welgene; LM007-86) containing 10% dialyzed fetal bovine serum (Gibco; 30067–334) and 1% penicillin/streptomycin (Gibco; 15140-122) and kept in a 37 °C incubator for 24 h. The cells were stained with 100 μL of cytosolic calcium dye using the FLIPR calcium 6 assay solution (Molecular devices, #R8190) supplemented with 2.5 mM probenecid (Sigma; P8761) and incubated for 1 h at 37 °C. After 1 h, the designated amount of the compound was treated in each well and incubated for another 1 h at 37 °C. Then, the cells were loaded in a Flexstation 3 microplate reader (Molecular Devices; FlexStaion) and 50 μL of 5 μM 5HT (serotonin hydrochloride, Sigma; H9523) was injected from a source plate (Nunc 96-well polystyrene conical bottom MicroWell Plate, Thermo; 249662) and the fluorescence intensity (Ex/Em-485nm/ 525 nm) was measured. […]
Antagonism assay Source Stimulus Incubation Measured Detection Method […]

CYP2C9 = CYP2C9 (Homo sapiens, UniProt P11712); assay: in vitro
CYP2C9, sequence (P11712 whole entry): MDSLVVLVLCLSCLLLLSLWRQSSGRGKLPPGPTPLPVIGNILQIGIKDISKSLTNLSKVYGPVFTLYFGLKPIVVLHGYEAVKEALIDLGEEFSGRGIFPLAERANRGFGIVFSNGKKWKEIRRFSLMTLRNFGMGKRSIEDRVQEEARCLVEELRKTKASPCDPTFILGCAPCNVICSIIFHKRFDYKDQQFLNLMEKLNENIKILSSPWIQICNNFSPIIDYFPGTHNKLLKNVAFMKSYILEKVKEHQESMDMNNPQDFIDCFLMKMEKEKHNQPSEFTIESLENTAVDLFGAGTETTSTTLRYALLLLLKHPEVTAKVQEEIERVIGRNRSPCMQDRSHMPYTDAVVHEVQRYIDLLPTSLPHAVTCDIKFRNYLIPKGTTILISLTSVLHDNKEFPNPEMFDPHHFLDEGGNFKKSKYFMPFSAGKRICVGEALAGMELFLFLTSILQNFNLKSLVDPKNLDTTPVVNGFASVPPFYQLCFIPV

HFD-fed C57BL/6J mice = assay: DIO mice: intraperitoneal glucose tolerance test (IPGTT); format: in vivo, mouse; set-up: Mean Diff. (Vehicle vs. 11c), GTT blood glucose / Mean 2 (11c group), GTT blood glucose: unit not given here; details: for Mean Diff. (Vehicle vs. 11c), GTT blood glucose: Dunnett's multiple comparisons test; for Significant? (Vehicle vs. 11c), GTT blood glucose: Dunnett's test, alpha 0.05; for Mean 2 (11c group), GTT blood glucose: test details, mixed-effects model; for Blood Glucose Level 0 min / Blood Glucose Level 15 min / Blood Glucose Level 30 min / Blood Glucose Level 60 min / Blood Glucose Level 90 min / Blood Glucose Level 120 min / Blood Glucose Level AUC: GTT, PO
Description: For the glucose tolerance test, overnight fasted mice were intraperitoneally injected with 2 g/kg D-glucose (Sigma-Aldrich). Glucose concentrations were measured using a Gluco DR. TOP glucometer (Allmedicus). The AUC (area under the curve) during the GTT was calculated using GraphPad Prism 8.0 software (La Jolla, CA, USA) by the trapezoidal method.

## Cc1nc2n(c(=O)c1CCN1CCC(=C3c4ccc(Cl)cc4CCc4cccnc43)CC1)CCCC2O (stereo not drawn) [Compound 11c]
5HT1D
  Selectivity 1D: % inhibition: 3%
CYP2C9
  inhibition at 10 µM: 3.17%
HFD-fed C57BL/6J mice; 5mpk, 0 min
  Mean Diff. (Vehicle vs. 11c), GTT blood glucose: 17.89
  Significant? (Vehicle vs. 11c), GTT blood glucose: No
  Mean 2 (11c group), GTT blood glucose: 206.4
HFD-fed C57BL/6J mice; 5mpk, 15 min
  Mean Diff. (Vehicle vs. 11c), GTT blood glucose: -1.429
  Significant? (Vehicle vs. 11c), GTT blood glucose: No
  Mean 2 (11c group), GTT blood glucose: 542.4
HFD-fed C57BL/6J mice; 5mpk, 30 min
  Mean Diff. (Vehicle vs. 11c), GTT blood glucose: 41.17
  Significant? (Vehicle vs. 11c), GTT blood glucose: No
  Mean 2 (11c group), GTT blood glucose: 575
HFD-fed C57BL/6J mice; 5mpk, 60 min
  Mean Diff. (Vehicle vs. 11c), GTT blood glucose: 150
  Significant? (Vehicle vs. 11c), GTT blood glucose: Yes
  Mean 2 (11c group), GTT blood glucose: 473.2
HFD-fed C57BL/6J mice; 5mpk, 90 min
  Mean Diff. (Vehicle vs. 11c), GTT blood glucose: 176.5
  Significant? (Vehicle vs. 11c), GTT blood glucose: Yes
  Mean 2 (11c group), GTT blood glucose: 359.1
HFD-fed C57BL/6J mice; 5mpk, 120 min
  Mean Diff. (Vehicle vs. 11c), GTT blood glucose: 168.6
  Significant? (Vehicle vs. 11c), GTT blood glucose: Yes
  Mean 2 (11c group), GTT blood glucose: 270.4
HFD-fed C57BL/6J mice; 5 or 10 mpk, DIO mice
  Glucose tolerance: improved
HFD-fed C57BL/6J mice; 10mpk, 0 min
  Mean Diff. (Vehicle vs. 11c), GTT blood glucose: 40.33
  Significant? (Vehicle vs. 11c), GTT blood glucose: No
  Mean 2 (11c group), GTT blood glucose: 183.9
HFD-fed C57BL/6J mice; 10mpk, 15 min
  Mean Diff. (Vehicle vs. 11c), GTT blood glucose: 13.5
  Significant? (Vehicle vs. 11c), GTT blood glucose: No
  Mean 2 (11c group), GTT blood glucose: 527.5
HFD-fed C57BL/6J mice; 10mpk, 30 min
  Mean Diff. (Vehicle vs. 11c), GTT blood glucose: 33.08
  Significant? (Vehicle vs. 11c), GTT blood glucose: No
HFD-fed C57BL/6J mice; 10mpk, 60 min
  Mean Diff. (Vehicle vs. 11c), GTT blood glucose: 136.4
  Significant? (Vehicle vs. 11c), GTT blood glucose: No
  Mean 2 (11c group), GTT blood glucose: 486.8
HFD-fed C57BL/6J mice; 10mpk, 90 min
  Mean Diff. (Vehicle vs. 11c), GTT blood glucose: 180.6
  Significant? (Vehicle vs. 11c), GTT blood glucose: Yes
HFD-fed C57BL/6J mice; 10mpk, 120 min
  Mean Diff. (Vehicle vs. 11c), GTT blood glucose: 191.3
  Significant? (Vehicle vs. 11c), GTT blood glucose: Yes
  Mean 2 (11c group), GTT blood glucose: 247.7
HFD-fed C57BL/6J mice; DIO mice, 5mpk, 0 min, group mean
  Blood Glucose Level 0 min: 206.4 mg/dL
HFD-fed C57BL/6J mice; DIO mice, 5mpk, 0 min, individual animals, 5 mg/kg
  Blood Glucose Level 0 min: 241.0 mg/dL and 220.5 mg/dL and 182.0 mg/dL and 211.0 mg/dL and 157.0 mg/dL and 205.0 mg/dL and 228.0 mg/dL
HFD-fed C57BL/6J mice; DIO mice, 5mpk, 15 min, group mean
  Blood Glucose Level 15 min: 542.4 mg/dL
HFD-fed C57BL/6J mice; DIO mice, 5mpk, 15 min, individual animals, 5 mg/kg
  Blood Glucose Level 15 min: 629.0 mg/dL and 541.0 mg/dL and 509.0 mg/dL and 553.5 mg/dL and 596.5 mg/dL and 427.0 mg/dL
HFD-fed C57BL/6J mice; DIO mice, 5mpk, 30 min, group mean
  Blood Glucose Level 30 min: 575.0 mg/dL
HFD-fed C57BL/6J mice; DIO mice, 5mpk, 30 min, individual animals, 5 mg/kg
  Blood Glucose Level 30 min: 662.5 mg/dL and 628.5 mg/dL and 650.5 mg/dL and 617.5 mg/dL and 539.5 mg/dL and 470.5 mg/dL and 456.0 mg/dL
HFD-fed C57BL/6J mice; DIO mice, 5mpk, 60 min, group mean
  Blood Glucose Level 60 min: 473.2 mg/dL
HFD-fed C57BL/6J mice; DIO mice, 5mpk, 60 min, individual animals, 5 mg/kg
  Blood Glucose Level 60 min: 526.0 mg/dL and 500.0 mg/dL and 631.5 mg/dL and 438.0 mg/dL and 309.5 mg/dL and 481.5 mg/dL and 426.0 mg/dL
HFD-fed C57BL/6J mice; DIO mice, 5mpk, 90 min, group mean
  Blood Glucose Level 90 min: 359.1 mg/dL
HFD-fed C57BL/6J mice; DIO mice, 5mpk, 90 min, individual animals, 5 mg/kg
  Blood Glucose Level 90 min: 412.0 mg/dL and 393.0 mg/dL and 445.5 mg/dL and 295.0 mg/dL and 202.0 mg/dL and 352.0 mg/dL and 414.5 mg/dL
HFD-fed C57BL/6J mice; DIO mice, 5mpk, 120 min, group mean
  Blood Glucose Level 120 min: 270.4 mg/dL
HFD-fed C57BL/6J mice; DIO mice, 5mpk, 120 min, individual animals, 5 mg/kg
  Blood Glucose Level 120 min: 297.0 mg/dL and 295.0 mg/dL and 358.5 mg/dL and 219.0 mg/dL and 181.0 mg/dL and 242.5 mg/dL and 299.5 mg/dL
HFD-fed C57BL/6J mice; DIO mice, 5mpk, group mean
  Blood Glucose Level AUC: 26885.0 mg·min/dL
HFD-fed C57BL/6J mice; DIO mice, 10mpk, 0 min, group mean
  Blood Glucose Level 0 min: 183.9 mg/dL
HFD-fed C57BL/6J mice; DIO mice, 10mpk, 0 min, individual animals, 10 mg/kg
  Blood Glucose Level 0 min: 113.5 mg/dL and 200.5 mg/dL and 204.0 mg/dL and 222.5 mg/dL and 179.0 mg/dL and 184.0 mg/dL
HFD-fed C57BL/6J mice; DIO mice, 10mpk, 15 min, group mean
  Blood Glucose Level 15 min: 527.5 mg/dL
HFD-fed C57BL/6J mice; DIO mice, 10mpk, 15 min, individual animals, 10 mg/kg
  Blood Glucose Level 15 min: 483.5 mg/dL and 423.0 mg/dL and 498.0 mg/dL and 646.0 mg/dL and 555.0 mg/dL and 559.5 mg/dL
HFD-fed C57BL/6J mice; DIO mice, 10mpk, 30 min, group mean
  Blood Glucose Level 30 min: 591.4 mg/dL
HFD-fed C57BL/6J mice; DIO mice, 10mpk, 30 min, individual animals, 10 mg/kg
  Blood Glucose Level 30 min: 550.5 mg/dL and 531.0 mg/dL and 653.0 mg/dL and 657.0 mg/dL and 577.0 mg/dL and 580.0 mg/dL
HFD-fed C57BL/6J mice; DIO mice, 10mpk, 60 min, group mean
  Blood Glucose Level 60 min: 486.8 mg/dL
HFD-fed C57BL/6J mice; DIO mice, 10mpk, 60 min, individual animals, 10 mg/kg
  Blood Glucose Level 60 min: 370.0 mg/dL and 458.5 mg/dL and 558.0 mg/dL and 603.0 mg/dL and 357.5 mg/dL and 574.0 mg/dL
HFD-fed C57BL/6J mice; DIO mice, 10mpk, 90 min, group mean
  Blood Glucose Level 90 min: 365.9 mg/dL
HFD-fed C57BL/6J mice; DIO mice, 10mpk, 90 min, individual animals, 10 mg/kg
  Blood Glucose Level 90 min: 283.5 mg/dL and 422.0 mg/dL and 442.0 mg/dL and 440.5 mg/dL and 227.0 mg/dL and 380.5 mg/dL
HFD-fed C57BL/6J mice; DIO mice, 10mpk, 120 min, group mean
  Blood Glucose Level 120 min: 247.7 mg/dL
HFD-fed C57BL/6J mice; DIO mice, 10mpk, 120 min, individual animals, 10 mg/kg
  Blood Glucose Level 120 min: 170.0 mg/dL and 260.5 mg/dL and 387.0 mg/dL and 315.5 mg/dL and 148.5 mg/dL and 204.5 mg/dL
HFD-fed C57BL/6J mice; DIO mice, 10mpk, group mean
  Blood Glucose Level AUC: 28219.0 mg·min/dL
